According to PubChem BioAssay AID256 (DTP/NCI, 2004):
Inconclusive results and toxic doses are left out. Rule for the calls: active = survival T/C of 150% or more; inactive = T/C below 125% in these data.

Test system: CD2F1 mice, L1210 leukemia ip, survival T/C
Test: NCI In Vivo Anticancer Drug Screen. Data for tumor model L1210 Leukemia (intraperitoneal) in CD2F1 (CDF1) mice
Settings: higher = longer survival
Procedure, shortened: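 Mice carrying a transplanted tumor received test compound or vehicle alone. The value is the measurement in the treated group divided by that in the vehicle-treated control group.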

[1] = endpoint: mean survival time, dose: 50.0 mg/kg/injection, schedule: Q04DX002 (ip), vehicle: saline with Tween-80
[2] = endpoint: mean survival time, dose: 100.0 mg/kg/injection, schedule: Q04DX002 (ip), vehicle: saline with Tween-80
[3] = endpoint: mean survival time, dose: 200.0 mg/kg/injection, schedule: Q04DX002 (ip), vehicle: saline with Tween-80
[4] = endpoint: mean survival time, dose: 100.0 mg/kg/injection, schedule: Q01DX001 (ip), vehicle: saline
[5] = endpoint: mean survival time, dose: 200.0 mg/kg/injection, schedule: Q01DX001 (ip), vehicle: saline
[6] = endpoint: mean survival time, dose: 400.0 mg/kg/injection, schedule: Q01DX001 (ip), vehicle: saline
[7] = endpoint: mean survival time, dose: 100.0 mg/kg/injection, schedule: Q01DX009 (ip), vehicle: Klucel (hydroxypropylcellulose) (HPC)
[8] = endpoint: mean survival time, dose: 200.0 mg/kg/injection, schedule: Q01DX009 (ip), vehicle: Klucel (hydroxypropylcellulose) (HPC)
[9] = endpoint: mean survival time, dose: 100.0 mg/kg/injection, schedule: Q04DX003 (ip), vehicle: saline with Tween-80
[10] = endpoint: mean survival time, dose: 200.0 mg/kg/injection, schedule: Q04DX003 (ip), vehicle: saline with Tween-80
[11] = endpoint: mean survival time, dose: 25.0 mg/kg/injection, schedule: Q04DX003 (ip), vehicle: saline with Tween-80
[12] = endpoint: mean survival time, dose: 50.0 mg/kg/injection, schedule: Q04DX003 (ip), vehicle: saline with Tween-80
[13] = endpoint: mean survival time, dose: 50.0 mg/kg/injection, schedule: Q01DX009 (ip), vehicle: saline with Tween-80
[14] = endpoint: mean survival time, dose: 100.0 mg/kg/injection, schedule: Q01DX009 (ip), vehicle: saline with Tween-80
[15] = endpoint: mean survival time, dose: 12.5 mg/kg/injection, schedule: Q04DX003 (ip), vehicle: saline with Tween-80
[16] = endpoint: mean survival time, dose: 200.0 mg/kg/injection, schedule: Q01DX009 (ip), vehicle: saline with Tween-80
[17] = endpoint: mean survival time, dose: 400.0 mg/kg/injection, schedule: Q01DX009 (ip), vehicle: saline with Tween-80
[18] = endpoint: mean survival time, dose: 400.0 mg/kg/injection, schedule: Q04DX003 (ip), vehicle: saline with Tween-80

Measured: T/C

CC1SC(=Nc2ccc(S(N)(=O)=O)cc2)NC1=O (centres undefined)
inactive: [1] 105 % of control | [2] 105 % of control | endpoint: mean survival time, dose: 200.0 mg/kg/injection, schedule: Q01DX001 (ip), vehicle: saline with Tween-80 89 % of control | [3] 102 % of control

Nc1nc(=O)n(C2OC(CO)C(O)C2Cl)cc1I (centres undefined)
inactive: endpoint: median survival time, dose: 12.5 mg/kg/injection, schedule: Q01DX005 (ip), vehicle: saline with Tween-80 97 % of control | endpoint: median survival time, dose: 25.0 mg/kg/injection, schedule: Q01DX005 (ip), vehicle: saline with Tween-80 112 % of control | endpoint: median survival time, dose: 50.0 mg/kg/injection, schedule: Q01DX005 (ip), vehicle: saline with Tween-80 104 % of control | endpoint: median survival time, dose: 100.0 mg/kg/injection, schedule: Q01DX005 (ip), vehicle: saline with Tween-80 107 % of control | endpoint: median survival time, dose: 200.0 mg/kg/injection, schedule: Q01DX005 (ip), vehicle: saline with Tween-80 104 % of control

Cc1cc(C2(c3cc(C)c(O)c(C(=O)O)c3)OS(=O)(=O)c3ccccc32)cc(C(=O)O)c1O
inactive: [4] 104 % of control | [5] 98 % of control | [6] 106 % of control

COC(=O)C1CCCC(=O)C1C(=O)OC (centres undefined)
inactive: endpoint: mean survival time, dose: 100.0 mg/kg/injection, schedule: Q01DX009 (ip), vehicle: other 95 % of control | endpoint: mean survival time, dose: 200.0 mg/kg/injection, schedule: Q01DX009 (ip), vehicle: other 101 % of control | endpoint: mean survival time, dose: 400.0 mg/kg/injection, schedule: Q01DX009 (ip), vehicle: other 92 % of control

CN(C)C(c1ccccc1)C(O)c1ccccc1 (centres undefined)
inactive: endpoint: mean survival time, dose: 75.0 mg/kg/injection, schedule: Q01DX001 (ip), vehicle: saline 103 % of control | endpoint: mean survival time, dose: 150.0 mg/kg/injection, schedule: Q01DX001 (ip), vehicle: saline 97 % of control

CC(C)NC(=O)Oc1ccccc1C(=O)OCc1ccccc1
inactive: endpoint: mean survival time, dose: 50.0 mg/kg/injection, schedule: Q01DX009 (ip), vehicle: Klucel (hydroxypropylcellulose) (HPC) 115 % of control | [7] 108 % of control | [8] 112 % of control

O=C(O)C/[N+]([O-])=N\O
inactive: endpoint: mean survival time, dose: 100.0 mg/kg/injection, schedule: Q04DX003 (ip), vehicle: saline 96 % of control | endpoint: mean survival time, dose: 200.0 mg/kg/injection, schedule: Q04DX003 (ip), vehicle: saline 102 % of control | endpoint: mean survival time, dose: 400.0 mg/kg/injection, schedule: Q04DX003 (ip), vehicle: saline 105 % of control

COc1cc(/C=N\NC(=O)CC#N)cc(OC)c1OC
inactive: [9] 94 % of control | [10] 98 % of control

O=C(NC(NC(=O)c1ccc(Cl)cc1)C(Cl)(Cl)Cl)c1ccc(Cl)cc1
inactive: [11] 98 % of control | [12] 88 % of control | [9] 90 % of control

COc1cc(OC)c(NC(=O)Oc2c(Cl)cccc2Cl)cc1Cl
inactive: [13] 94 % of control | [14] 97 % of control

Oc1ccccc1/C=N/c1nc2ccc(Cl)cc2s1.Oc1ccccc1/C=N/c1nc2ccc(Cl)cc2s1.[Zn]
inactive: endpoint: mean survival time, dose: 25.0 mg/kg/injection, schedule: Q01DX001 (ip), vehicle: saline 96 % of control | endpoint: mean survival time, dose: 50.0 mg/kg/injection, schedule: Q01DX001 (ip), vehicle: saline 91 % of control | [4] 87 % of control

CCOC(C[Se][Se]CC(OCC)OCC)OCC
inactive: endpoint: mean survival time, dose: 3.13 mg/kg/injection, schedule: Q01DX009 (ip), vehicle: saline 100 % of control | endpoint: mean survival time, dose: 6.25 mg/kg/injection, schedule: Q01DX009 (ip), vehicle: saline 108 % of control | endpoint: mean survival time, dose: 6.25 mg/kg/injection, schedule: Q04DX003 (ip), vehicle: saline with Tween-80 95 % of control | [15] 102 % of control

NC(=O)c1ncnnc1N
inactive: endpoint: mean survival time, dose: 100.0 mg/kg/injection, schedule: Q01DX001 (ip), vehicle: carboxymethylcellulose (CMC) 93 % of control | endpoint: mean survival time, dose: 200.0 mg/kg/injection, schedule: Q01DX001 (ip), vehicle: carboxymethylcellulose (CMC) 102 % of control | endpoint: mean survival time, dose: 400.0 mg/kg/injection, schedule: Q01DX001 (ip), vehicle: carboxymethylcellulose (CMC) 102 % of control

Cc1cc(=O)[nH]c(-c2ccccc2)c1C(=O)O
inactive: [2] 95 % of control | [3] 95 % of control | endpoint: mean survival time, dose: 400.0 mg/kg/injection, schedule: Q04DX002 (ip), vehicle: saline with Tween-80 95 % of control

C=C(C)C1CCC2(COS(=O)(=O)c3ccc(C)cc3)CCC3(C)C(CCC4C5(C)CCC(OC6CCCCO6)C(C)(C)C5CCC43C)C12 (centres undefined)
inactive: endpoint: mean survival time, dose: 25.0 mg/kg/injection, schedule: Q04DX002 (ip), vehicle: saline with Tween-80 103 % of control | [1] 92 % of control

O=C(NO)c1ccc(O)c(O)c1O
inactive: endpoint: mean survival time, dose: 25.0 mg/kg/injection, schedule: Q01DX009 (ip), vehicle: distilled water + Tween-80 110 % of control | endpoint: mean survival time, dose: 50.0 mg/kg/injection, schedule: Q01DX009 (ip), vehicle: distilled water + Tween-80 108 % of control | endpoint: mean survival time, dose: 100.0 mg/kg/injection, schedule: Q01DX009 (ip), vehicle: distilled water + Tween-80 116 % of control

Nc1cc2[nH]cnc2c([Se])n1
inactive: [9] 101 % of control | [10] 107 % of control

COC(=O)C1C2CCC(C2)C1C(=O)O (centres undefined)
inactive: endpoint: mean survival time, dose: 100.0 mg/kg/injection, schedule: Q01DX009 (ip), vehicle: saline 96 % of control | endpoint: mean survival time, dose: 200.0 mg/kg/injection, schedule: Q01DX009 (ip), vehicle: saline 96 % of control | endpoint: mean survival time, dose: 400.0 mg/kg/injection, schedule: Q01DX009 (ip), vehicle: saline 94 % of control

c1cc2c3c(cccc3c1)/C(=C1/Cc3cccc4cccc1c34)C2
inactive: [14] 107 % of control | [9] 103 % of control | [16] 113 % of control | [10] 104 % of control | [17] 110 % of control | [18] 107 % of control

c1ccc(CSC(SCc2ccccc2)c2ccccc2)cc1
inactive: [7] 86 % of control | [9] 96 % of control | [8] 92 % of control | [10] 100 % of control | endpoint: mean survival time, dose: 400.0 mg/kg/injection, schedule: Q01DX009 (ip), vehicle: Klucel (hydroxypropylcellulose) (HPC) 92 % of control | [18] 97 % of control

O=S(=O)(O)c1ccc(-c2c3nc(c(-c4ccc(S(=O)(=O)O)cc4)c4ccc([nH]4)c(-c4ccc(S(=O)(=O)O)cc4)c4nc(c(-c5ccc(S(=O)(=O)O)cc5)c5ccc2[nH]5)C=C4)C=C3)cc1
inactive: [4] 108 % of control | [5] 108 % of control | [6] 113 % of control

CC(=O)CCc1ccc(O)cc1
inactive: [14] 94 % of control | [9] 97 % of control | [16] 93 % of control | [10] 92 % of control | [17] 94 % of control | [18] 92 % of control

CN(C)C(=O)N1CC1
inactive: [9] 98 % of control | [10] 98 % of control | [18] 106 % of control

O=C(COc1ccc(Cl)c(Cl)c1)Nc1ccc[n+](Cc2ccccc2)c1
inactive: [15] 104 % of control | [11] 98 % of control | [12] 89 % of control

CCc1ncc(C(O)c2ccc(Cl)cc2)n1Cc1ccccc1 (centres undefined)
inactive: [14] 92 % of control | [16] 95 % of control | [17] 92 % of control

CC(=O)N(C)c1ccc(NC(=O)Nc2ccc(C)c([N+](=O)[O-])c2)cc1
inactive: [13] 102 % of control | [14] 94 % of control | [16] 90 % of control

Cc1ccc(N=C(C(=Nc2ccc(C)cc2)c2ccccc2)c2ccccc2)cc1
inactive: [16] 101 % of control | [17] 92 % of control

CC(=O)Nc1nnc(SCc2ccccc2)s1
inactive: [14] 100 % of control | [9] 92 % of control | [16] 96 % of control | [10] 89 % of control | [17] 100 % of control | [18] 89 % of control
